According to ChEMBL document CHEMBL1129632, “Synthesis and contractile activities of cyclic thrombin receptor-derived peptide analogues with a Phe-Leu-Leu-Arg motif: importance of the Phe/Arg relative conformation and the primary amino group for activity” (1996):
Residues, ends and D or L forms follow the SMILES beside them.

Species: Rattus norvegicus
Assay: Relative biological activity in gastric contractile assay of rat (Relative activity is EC(peptide)/EC (compound 4) [EC contraction of each agonist to that of compound 4])
Type: functional, Stomach

In order of rising Relative activity:
1. CC(C)C[C@H](NC(=O)[C@H](CC(C)C)NC(=O)[C@H](Cc1ccccc1)NC(=O)[C@@H](N)CO)C(=O)N[C@@H](CCCN=C(N)N)C(N)=O  1
2. CC(C)C[C@@H]1NC(=O)[C@H](CC(C)C)NC(=O)[C@H](Cc2ccccc2)NC(=O)[C@@H](N)CCCCNC(=O)[C@H](CCCN=C(N)N)NC1=O (HELM PEPTIDE1{K.F.L.L.R}$PEPTIDE1,PEPTIDE1,1:R3-5:R2$$$V2.0)  2.4
3. CC(C)C[C@@H]1NC(=O)[C@H](Cc2ccccc2)NC(=O)CNC(=O)[C@H](CCCN=C(N)N)NC(=O)[C@H](CC(C)C)NC1=O (HELM PEPTIDE1{F.L.L.R.G}$PEPTIDE1,PEPTIDE1,1:R1-5:R2$$$V2.0)  390

In the case of `CC(C)C[C@@H]1NC(=O)[C@H](Cc2ccccc2)NC(=O)CCCCCNC(=O)[C@H](CCCN=C(N)N)NC(=O)[C@H](CC(C)C)NC1=O` (single isomer, unassigned), the Relative activity is reported as greater than 1000.
